This note sets out measurements from patent publication US12637428B2, “Isoquinoline derivatives as SIK2 inhibitors” (Cancer Research Technology Limited, priority 2019, dated 2026).

Some results are limits rather than exact numbers.

What all share (type): biochemical
The target in one experiment is T1, SIK2 (Homo sapiens, UniProt Q9H0K1).
T1 construct: purchased Life Technologies
The experiment in a line: SIK2 kinase assay, IMAP fluorescence polarization. Conditions: 50 or 100 μM ATP, average. A digest of the protocol:
(§1)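 Phosphorylation of 100 nM FAM-peptide by 0.6-13 nM kinase (50 or 100 μM ATP, pH 7.2 Tris/MgCl2 buffer, 60 min, RT) was quantified by IMAP fluorescence polarization. Stop reagent: 0.25% IMAP binding reagent, buffer A:B 85:15, except 30:70 for Src.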

For a further experiment, the target named is T2, SIK1 (Homo sapiens, UniProt P57059).
T2 construct: purchased Life Technologies
The experiment in a line: SIK1 kinase assay, IMAP fluorescence polarization. Conditions: 50 or 100 μM ATP, average. The essentials: as §1

For the next experiment, the target named is T3, SIK3 (Homo sapiens, UniProt Q9Y2K2).
T3 construct: purchased Life Technologies
The experiment in a line: SIK3 kinase assay, IMAP fluorescence polarization. The note with it: 50 or 100 μM ATP, average. A digest of the protocol:
as §1

The target in another experiment is T4, Abl (Homo sapiens, UniProt P00519).
T4 construct: purchased Life Technologies
Briefly: Abl kinase assay, IMAP fluorescence polarization. Conditions: 50 or 100 μM ATP, average. The essentials: as §1

In the next experiment the target is T5, Src (Homo sapiens, UniProt P12931).
T5 construct: purchased Life Technologies
The experiment in a line: Src kinase assay, IMAP fluorescence polarization. The note with it: 50 or 100 μM ATP, average. A digest of the protocol:
as §1

In another experiment the target is T6, EPHA2 (Homo sapiens, UniProt P29317).
T6 construct: purchased Life Technologies
Briefly: EPHA2 kinase assay, IMAP fluorescence polarization. Conditions: 50 or 100 μM ATP, Tris pH 8.5, average.

T1 sequence (Q9H0K1 whole entry): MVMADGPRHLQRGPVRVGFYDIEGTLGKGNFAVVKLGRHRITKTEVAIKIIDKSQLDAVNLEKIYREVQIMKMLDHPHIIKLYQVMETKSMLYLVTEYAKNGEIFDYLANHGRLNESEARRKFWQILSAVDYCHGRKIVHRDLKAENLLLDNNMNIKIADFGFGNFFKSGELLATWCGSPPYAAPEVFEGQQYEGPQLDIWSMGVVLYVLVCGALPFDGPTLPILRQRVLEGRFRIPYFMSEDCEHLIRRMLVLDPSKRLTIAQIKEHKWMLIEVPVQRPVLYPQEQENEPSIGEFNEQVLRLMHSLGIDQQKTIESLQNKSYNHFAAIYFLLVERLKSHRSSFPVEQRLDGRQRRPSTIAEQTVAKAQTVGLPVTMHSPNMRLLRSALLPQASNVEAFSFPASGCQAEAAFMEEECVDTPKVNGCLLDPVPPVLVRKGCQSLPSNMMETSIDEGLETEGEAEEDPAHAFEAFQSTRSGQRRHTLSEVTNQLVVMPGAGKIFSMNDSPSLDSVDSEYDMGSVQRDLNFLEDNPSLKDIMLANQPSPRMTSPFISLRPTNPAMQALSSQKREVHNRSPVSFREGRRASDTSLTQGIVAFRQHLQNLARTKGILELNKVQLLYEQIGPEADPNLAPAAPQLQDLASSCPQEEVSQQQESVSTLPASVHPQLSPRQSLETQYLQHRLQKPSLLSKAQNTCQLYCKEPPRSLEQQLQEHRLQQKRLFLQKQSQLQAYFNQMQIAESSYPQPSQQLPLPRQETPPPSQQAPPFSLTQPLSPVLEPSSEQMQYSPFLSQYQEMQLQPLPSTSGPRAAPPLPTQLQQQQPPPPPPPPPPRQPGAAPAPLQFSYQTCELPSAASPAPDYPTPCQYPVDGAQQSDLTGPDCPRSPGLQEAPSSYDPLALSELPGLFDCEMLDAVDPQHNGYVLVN
T6 sequence (P29317 24-976): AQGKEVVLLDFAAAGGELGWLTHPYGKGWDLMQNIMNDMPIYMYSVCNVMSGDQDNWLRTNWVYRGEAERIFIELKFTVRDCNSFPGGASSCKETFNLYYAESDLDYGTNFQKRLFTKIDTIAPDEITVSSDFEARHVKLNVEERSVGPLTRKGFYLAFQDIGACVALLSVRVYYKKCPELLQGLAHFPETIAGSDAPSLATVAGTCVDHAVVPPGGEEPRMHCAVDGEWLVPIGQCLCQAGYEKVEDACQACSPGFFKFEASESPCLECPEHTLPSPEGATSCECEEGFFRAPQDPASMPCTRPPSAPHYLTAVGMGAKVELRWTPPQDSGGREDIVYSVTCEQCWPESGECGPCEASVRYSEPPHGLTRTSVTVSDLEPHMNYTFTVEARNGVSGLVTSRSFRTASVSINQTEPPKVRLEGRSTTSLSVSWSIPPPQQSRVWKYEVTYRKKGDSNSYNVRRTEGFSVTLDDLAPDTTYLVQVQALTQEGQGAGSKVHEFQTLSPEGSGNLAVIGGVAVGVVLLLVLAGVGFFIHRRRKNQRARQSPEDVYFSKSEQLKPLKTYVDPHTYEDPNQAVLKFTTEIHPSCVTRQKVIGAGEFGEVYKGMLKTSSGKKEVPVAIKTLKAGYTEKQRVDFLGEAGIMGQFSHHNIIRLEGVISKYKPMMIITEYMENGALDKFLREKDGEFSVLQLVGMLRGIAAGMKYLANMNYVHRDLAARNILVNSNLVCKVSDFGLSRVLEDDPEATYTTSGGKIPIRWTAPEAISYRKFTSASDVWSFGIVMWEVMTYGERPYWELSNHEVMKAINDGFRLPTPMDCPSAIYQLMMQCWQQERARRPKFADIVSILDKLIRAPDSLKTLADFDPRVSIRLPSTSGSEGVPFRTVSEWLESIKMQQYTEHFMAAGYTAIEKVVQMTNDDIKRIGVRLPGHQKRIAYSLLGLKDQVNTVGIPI
T4 sequence (P00519 whole entry): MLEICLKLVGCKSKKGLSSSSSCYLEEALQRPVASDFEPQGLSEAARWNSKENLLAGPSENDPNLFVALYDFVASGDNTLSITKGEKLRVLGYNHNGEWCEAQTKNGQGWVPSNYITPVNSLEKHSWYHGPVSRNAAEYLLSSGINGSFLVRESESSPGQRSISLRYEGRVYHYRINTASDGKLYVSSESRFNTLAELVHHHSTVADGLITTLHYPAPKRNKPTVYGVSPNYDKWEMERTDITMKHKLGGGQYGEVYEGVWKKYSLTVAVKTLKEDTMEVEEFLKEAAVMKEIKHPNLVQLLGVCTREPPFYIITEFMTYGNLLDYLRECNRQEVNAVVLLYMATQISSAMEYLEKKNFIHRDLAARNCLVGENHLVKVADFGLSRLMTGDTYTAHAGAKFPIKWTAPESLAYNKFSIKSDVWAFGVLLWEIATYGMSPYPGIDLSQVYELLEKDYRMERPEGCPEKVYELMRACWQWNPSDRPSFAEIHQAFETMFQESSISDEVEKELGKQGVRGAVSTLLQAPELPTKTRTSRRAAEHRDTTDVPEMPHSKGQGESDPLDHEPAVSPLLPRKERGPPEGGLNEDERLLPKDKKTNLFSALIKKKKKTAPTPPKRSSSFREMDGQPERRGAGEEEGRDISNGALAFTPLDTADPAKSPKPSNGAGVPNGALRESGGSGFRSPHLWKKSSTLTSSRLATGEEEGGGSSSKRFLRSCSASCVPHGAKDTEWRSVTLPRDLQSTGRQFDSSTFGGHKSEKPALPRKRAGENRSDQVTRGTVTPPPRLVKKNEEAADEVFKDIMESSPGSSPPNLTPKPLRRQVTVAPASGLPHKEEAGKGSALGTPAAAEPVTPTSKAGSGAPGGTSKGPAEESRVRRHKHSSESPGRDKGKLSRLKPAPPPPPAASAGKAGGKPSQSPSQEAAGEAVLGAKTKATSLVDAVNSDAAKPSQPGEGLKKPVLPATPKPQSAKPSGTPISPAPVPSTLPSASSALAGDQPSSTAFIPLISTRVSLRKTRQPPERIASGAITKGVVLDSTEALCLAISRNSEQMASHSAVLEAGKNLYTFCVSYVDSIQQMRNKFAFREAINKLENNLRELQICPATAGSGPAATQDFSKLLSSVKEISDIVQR
T3 sequence (Q9Y2K2 whole entry): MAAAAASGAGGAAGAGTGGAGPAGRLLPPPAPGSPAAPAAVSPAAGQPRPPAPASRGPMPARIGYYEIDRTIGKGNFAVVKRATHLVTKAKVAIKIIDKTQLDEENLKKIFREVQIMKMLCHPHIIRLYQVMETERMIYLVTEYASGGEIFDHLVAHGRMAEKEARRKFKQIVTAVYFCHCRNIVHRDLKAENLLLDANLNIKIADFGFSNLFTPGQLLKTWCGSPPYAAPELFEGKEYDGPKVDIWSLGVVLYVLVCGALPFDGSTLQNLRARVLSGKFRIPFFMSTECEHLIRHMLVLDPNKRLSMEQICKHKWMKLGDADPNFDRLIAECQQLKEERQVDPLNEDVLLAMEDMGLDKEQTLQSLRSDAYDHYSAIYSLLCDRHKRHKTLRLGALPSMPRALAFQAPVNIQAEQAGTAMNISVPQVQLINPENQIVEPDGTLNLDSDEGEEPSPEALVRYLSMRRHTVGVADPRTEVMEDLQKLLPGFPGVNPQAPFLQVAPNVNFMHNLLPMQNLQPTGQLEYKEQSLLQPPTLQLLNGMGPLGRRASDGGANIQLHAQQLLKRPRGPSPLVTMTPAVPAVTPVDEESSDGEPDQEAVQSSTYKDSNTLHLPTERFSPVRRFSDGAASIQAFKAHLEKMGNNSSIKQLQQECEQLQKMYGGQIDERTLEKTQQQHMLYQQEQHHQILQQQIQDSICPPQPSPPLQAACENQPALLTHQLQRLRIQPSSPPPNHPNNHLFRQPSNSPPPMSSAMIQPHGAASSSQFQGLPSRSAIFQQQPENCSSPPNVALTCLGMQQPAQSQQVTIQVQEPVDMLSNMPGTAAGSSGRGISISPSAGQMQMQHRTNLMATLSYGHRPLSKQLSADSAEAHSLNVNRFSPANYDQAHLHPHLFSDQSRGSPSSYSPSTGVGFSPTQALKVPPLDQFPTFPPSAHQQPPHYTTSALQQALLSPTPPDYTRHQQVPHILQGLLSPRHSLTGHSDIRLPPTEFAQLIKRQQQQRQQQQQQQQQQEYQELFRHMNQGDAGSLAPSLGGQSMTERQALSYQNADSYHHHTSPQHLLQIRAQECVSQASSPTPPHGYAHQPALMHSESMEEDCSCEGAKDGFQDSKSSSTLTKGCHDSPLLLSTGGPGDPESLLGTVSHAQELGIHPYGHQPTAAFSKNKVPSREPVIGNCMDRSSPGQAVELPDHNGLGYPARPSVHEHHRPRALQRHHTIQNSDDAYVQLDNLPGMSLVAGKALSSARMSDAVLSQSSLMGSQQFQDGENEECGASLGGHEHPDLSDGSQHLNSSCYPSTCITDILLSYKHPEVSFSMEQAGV
T5 sequence (P12931 whole entry): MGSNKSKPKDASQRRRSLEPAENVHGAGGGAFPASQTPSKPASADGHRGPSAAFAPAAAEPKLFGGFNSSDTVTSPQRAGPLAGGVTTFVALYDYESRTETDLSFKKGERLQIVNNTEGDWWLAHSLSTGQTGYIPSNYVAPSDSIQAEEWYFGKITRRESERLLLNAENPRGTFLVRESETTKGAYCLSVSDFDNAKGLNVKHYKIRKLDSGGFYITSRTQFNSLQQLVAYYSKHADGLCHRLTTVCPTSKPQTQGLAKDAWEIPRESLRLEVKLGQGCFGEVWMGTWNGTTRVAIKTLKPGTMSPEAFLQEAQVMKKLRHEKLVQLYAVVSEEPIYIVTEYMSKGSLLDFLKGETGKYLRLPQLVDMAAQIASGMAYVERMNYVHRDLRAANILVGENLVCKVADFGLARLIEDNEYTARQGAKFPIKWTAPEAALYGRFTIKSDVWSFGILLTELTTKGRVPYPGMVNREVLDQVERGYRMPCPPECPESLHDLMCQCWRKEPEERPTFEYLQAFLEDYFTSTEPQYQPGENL

With `Cc1cccc(F)c1-c1cc(NC2CN(C)C2)c2cc(N)ncc2c1` [Example 68, 7-(2-Fluoro-6-methyl-phenyl)-N5-(1-methylazetidin-3-yl)isoquinoline-3,5-diamine], the Ki on SIK2 amounted to 0.1 nM; at SIK1, 0.532 nM; at SIK3 it was 0.993 nM; on Abl, 17.8 nM; at Src it was 160 nM; on EPHA2, 323 nM.

As to `Cc1cccc(F)c1-c1cc(NC[C@H]2CCCN2)c2cc(N)ncc2c1` [Example 12, 7-(2-fluoro-6-methyl-phenyl)-N5-[[(2R)-pyrrolidin-2-yl]methyl]isoquinoline-3,5-diamine], the Ki on SIK2 was determined as 0.329 nM; on SIK1, 1.07 nM; on SIK3, 3.1 nM; on Abl, 22.9 nM; at Src, 167 nM; at EPHA2 it was 216 nM.

For `Cc1cccc(F)c1-c1cc(N[C@@H]2CCCN(C)C2)c2cc(N)ncc2c1` [Example 85, 7-(2-fluoro-6-methyl-phenyl)-N5-[(3R)-1-methyl-3-piperidyl]isoquinoline-3,5-diamine], the Ki was 0.0911 nM at SIK2; 0.611 nM at SIK1; 1.62 nM at SIK3; 7.38 nM at Abl; 40.2 nM on Src; 258 nM at EPHA2.

As to `Cc1cccc(Cl)c1-c1ccc2c(C(=O)N[C@@H]3CCNC3)c(N)ncc2c1` [Example 42, 3-amino-7-(2-chloro-6-methyl-phenyl)-N-[(3R)-pyrrolidin-3-yl]isoquinoline-4-carboxamide], the Ki on SIK2 was 6.55 nM; on SIK1, 17 nM; on SIK3, 100 nM; on Abl, 340 nM; at Src, 202 nM; at EPHA2, 173 nM.

Take `Cc1cccc(F)c1-c1cc(NCC2CCNCC2)c2cc(N)ncc2c1` [Example 8, 7-(2-fluoro-6-methyl-phenyl)-N5-(4-piperidylmethyl)isoquinoline-3,5-diamine]: the Ki at SIK2 is 0.108 nM; on SIK1, 0.546 nM; at SIK3 it was 1.02 nM; on Abl it was 1.4 nM; on Src, 16.5 nM; on EPHA2, 5.15 nM.

Regarding `Cc1cccc(F)c1-c1cc(N2CCC(N(C)C)CC2)c2cc(N)ncc2c1` [Example 57, 5-[4-(dimethylamino)-1-piperidyl]-7-(2-fluoro-6-methyl-phenyl)isoquinolin-3-amine], the Ki worked out at 0.147 nM at SIK2; 1.13 nM at SIK1; 2.45 nM on SIK3; 59.9 nM on Abl; 303 nM on Src; 150 nM at EPHA2.

As for `Cc1cccc(F)c1-c1cc(NC(=O)C2CNC2)c2cc(N)ncc2c1` [Example 45, N-[3-amino-7-(2-fluoro-6-methyl-phenyl)-5-isoquinolyl] azetidine-3-carboxamide], the Ki was found to be 5.48 nM at SIK2; 17.8 nM at SIK1; 35.4 nM on SIK3; 84 nM at Abl; 883 nM on Src; 924 nM on EPHA2.

Turning to `Cc1cccc(Cl)c1-c1cc(NC2CN(C)C2)c2ccncc2c1` [Example 67, 7-(2-chloro-6-methyl-phenyl)-N-(1-methylazetidin-3-yl)isoquinolin-5-amine], the Ki at SIK2 was 11.8 nM; at SIK1, 10.4 nM; at SIK3, 27.2 nM; on Abl, 92.9 nM; on Src, 249 nM; on EPHA2, 50.4 nM.

For `Cc1cccc(F)c1-c1cc(N[C@@H]2CCCCN(C)C2)c2cc(N)ncc2c1` [Example 80, 7-(2-fluoro-6-methyl-phenyl)-N5-[(3R)-1-methylazepan-3-yl]isoquinoline-3,5-diamine], the inhibition constant (Ki) at SIK2 is 0.448 nM; on SIK1, 0.905 nM; at SIK3, 4.9 nM; at Abl, 15.2 nM; on Src, 48.6 nM; at EPHA2, greater than 1000 nM.

Consider `Cc1cccc(F)c1-c1cc(NC[C@@H]2CCCN2)c2cc(N)ncc2c1` [Example 13, 7-(2-fluoro-6-methyl-phenyl)-N5-[[(2S)-pyrrolidin-2-yl]methyl]isoquinoline-3,5-diamine], for which the Ki at SIK2 amounted to 0.191 nM; on SIK1 it was 0.501 nM; at SIK3, 1.01 nM; on Abl it was 3.29 nM; on Src, 24.3 nM; on EPHA2, 144 nM.

Regarding `CCN1CCC(Nc2cc(-c3c(C)cccc3Cl)cc3cnc(N)nc23)CC1` [Example 128, 6-(2-chloro-6-methyl-phenyl)-N8-(1-ethyl-4-piperidyl)quinazoline-2,8-diamine], the Ki at SIK2 is 0.184 nM; on SIK1 it was 0.409 nM; on SIK3, 1.46 nM; at Abl it was 26.4 nM; at Src, 27.4 nM; on EPHA2 it was 20 nM.

For `Cc1cccc(F)c1-c1cc(NC2CCNCC2)c2ncncc2c1` [Example 123, 6-(2-Fluoro-6-methyl-phenyl)-N-(4-piperidyl)quinazolin-8-amine], the Ki at SIK2 is 1.86 nM; on SIK1, 2.72 nM; at SIK3 it was 6.92 nM; at Abl, greater than 1000 nM; on Src, greater than 1000 nM; on EPHA2, 216 nM.

Consider `Cc1cccc(F)c1-c1cc(NC2CNC2)c2cc(N)ncc2c1` [Example 3, N5-(azetidin-3-yl)-7-(2-fluoro-6-methyl-phenyl)isoquinoline-3,5-diamine], for which the Ki on SIK2 amounted to 0.143 nM; at SIK1, 0.808 nM; on SIK3, 0.643 nM; on Abl it was 20.4 nM; on Src it was 330 nM; on EPHA2 it was 878 nM.

As for `CC(=O)Nc1cc2c(NC3CCN(C)CC3)cc(-c3c(C)cccc3F)cc2cn1` [Example 115, N-[7-(2-Fluoro-6-methyl-phenyl)-5-[(1-methyl-4-piperidyl)amino]-3-isoquinolyl]acetamide], the Ki on SIK2 came to 0.0274 nM; on SIK1 it was 0.183 nM; on SIK3 it was 0.301 nM; on Abl, 0.243 nM; on Src it was 0.974 nM; on EPHA2 it was 1.08 nM.

For the molecule `Cc1cccc(F)c1-c1cc(N[C@@H]2CCCCNC2)c2cc(N)ncc2c1` [Example 17, N5-[(3R)-azepan-3-yl]-7-(2-fluoro-6-methyl-phenyl)isoquinoline-3,5-diamine], the Ki at SIK2 is 0.096 nM; at SIK1, 0.463 nM; on SIK3, 1.65 nM; at Abl, 2.55 nM; on Src, greater than 1000 nM; on EPHA2, greater than 1000 nM.

On to `Cc1cccc(F)c1-c1cc(NC2CCNCC2)c2c(C#N)c(N)ncc2c1` [Example 133, 3-Amino-7-(2-fluoro-6-methyl-phenyl)-5-(4-piperidylamino)isoquinoline-4-carbonitrile], for which the Ki at SIK2 turned out to be 0.0609 nM; on SIK1, 0.348 nM; at SIK3, 0.271 nM; at Abl it was 1.13 nM; at Src it was 6.32 nM; at EPHA2, 34.8 nM.

As to `Cc1cccc(F)c1-c1cc(N[C@H]2CCCNC2)c2cc(N)ncc2c1` [Example 26, 7-(2-fluoro-6-methyl-phenyl)-N5-[(3S)-3-piperidyl]isoquinoline-3,5-diamine], the inhibition constant Ki at SIK2 came out at 0.0395 nM; at SIK1, 0.302 nM; at SIK3 it was 0.0838 nM; on Abl it was 0.341 nM; on Src, 163 nM; on EPHA2 it was 24.6 nM.
